Laboratory results taken from patent publication US6670365B1, “Substituted imidazo 1,2a}azines as selective inhibitors of cox-2” (Laboratorios S.A.L.V.A.T., S.A., priority 1998, dated 2003).

Legend:
COX-1 = target: T1, COX-1 (Homo sapiens, UniProt P23219); assay: Assay for in vitro COX-1 inhibition in fresh whole blood without anticoagulants (TXB2 by EIA); assay type: cell-based; conditions: no anticoagulants, compound 0.1 to 100 μM, 37° C. for 1 hour, TXB2 levels in plasma by EIA
T1 construct: Fresh blood was collected into sterile containers with no anticoagulants; endogenous in cells; host or cells: fresh whole blood without anticoagulants (platelet COX-1, TXB2 read-out)
Method: Assay for in vitro COX-1 Inhibition
Fresh blood was collected into sterile containers with no anticoagulants. Aliquots of 500 μL were immediately transferred to eppendorf tubes, preloaded with a test compound each, at final concentrations varying from 0.1 to 100 μM. The eppendorf tubes were vortexed and incubated at 37° C. for 1 hour. At the end of incubation, plasma was obtained by centrifugation and stored at −80° C. TXB2 levels in plasma were established using EIA (Cayman Chemical).

COX-2 = target: T2, COX-2 (Homo sapiens, UniProt P35354); assay: Assay for in vitro COX-2 inhibition in LPS-stimulated human whole blood (PGE2 by EIA); assay type: cell-based; conditions: for IC50: human whole blood, compound 0.1 to 25 μM, 15 minutes at 37° C., LPS 100 μg/mL for 24 h, PGE2 levels in plasma by EIA; for selective COX-2 inhibitory activity (COX-2 in preference to COX-1): in vitro, statement in words referring to Table 1
T2 construct: endogenous in cells; host or cells: human whole blood from volunteers, stimulated with LPS
T2 sequence (P35354 18-604): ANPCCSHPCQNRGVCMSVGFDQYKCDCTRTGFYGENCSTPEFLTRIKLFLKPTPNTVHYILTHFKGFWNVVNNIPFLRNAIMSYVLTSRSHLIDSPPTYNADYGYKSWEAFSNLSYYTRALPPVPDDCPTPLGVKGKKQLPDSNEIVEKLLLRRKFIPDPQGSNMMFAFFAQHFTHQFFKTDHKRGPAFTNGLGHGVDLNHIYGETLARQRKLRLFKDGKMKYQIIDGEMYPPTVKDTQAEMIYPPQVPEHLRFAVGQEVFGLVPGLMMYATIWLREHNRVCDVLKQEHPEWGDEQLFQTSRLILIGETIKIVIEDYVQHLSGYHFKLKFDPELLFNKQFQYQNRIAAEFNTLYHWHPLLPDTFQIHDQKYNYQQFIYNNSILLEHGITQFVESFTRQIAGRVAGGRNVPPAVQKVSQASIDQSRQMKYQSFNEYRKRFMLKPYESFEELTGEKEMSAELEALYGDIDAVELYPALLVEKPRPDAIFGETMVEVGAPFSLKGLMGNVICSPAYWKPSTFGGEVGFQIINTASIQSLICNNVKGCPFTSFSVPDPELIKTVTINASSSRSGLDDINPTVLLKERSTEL
Method: Assay for in vitro COX-2 Inhibition
Human whole blood from volunteers with no apparent inflammatory conditions and not having taken any NSAIDs for at least 15 days prior to blood collection was used to evaluate the COX-2 inhibitory effect of the synthesized compounds. […] At the end of the incubation, the blood was centrifuged at 10.000 rpm to obtain plasma, and the samples were stored at −80° C. PGE2 levels in plasma were established using EIA (Cayman Chemical).

T1 sequence (P23219 24-599): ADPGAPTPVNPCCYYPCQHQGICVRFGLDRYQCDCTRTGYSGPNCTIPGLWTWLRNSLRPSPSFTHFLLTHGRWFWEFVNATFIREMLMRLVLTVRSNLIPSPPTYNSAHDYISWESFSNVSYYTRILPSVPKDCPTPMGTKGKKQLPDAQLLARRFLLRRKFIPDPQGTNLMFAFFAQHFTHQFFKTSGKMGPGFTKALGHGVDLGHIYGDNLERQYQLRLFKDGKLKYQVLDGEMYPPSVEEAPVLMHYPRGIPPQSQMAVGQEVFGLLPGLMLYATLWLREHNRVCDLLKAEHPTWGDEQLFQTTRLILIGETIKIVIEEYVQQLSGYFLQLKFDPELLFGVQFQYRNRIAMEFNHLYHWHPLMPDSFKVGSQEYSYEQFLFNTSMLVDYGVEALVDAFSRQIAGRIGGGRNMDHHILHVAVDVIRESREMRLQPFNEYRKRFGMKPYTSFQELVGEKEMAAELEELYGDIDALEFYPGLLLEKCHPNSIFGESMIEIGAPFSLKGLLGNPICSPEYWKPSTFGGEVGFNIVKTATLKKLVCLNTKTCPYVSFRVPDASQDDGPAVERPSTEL

| IC50 (COX-1) [µM] | IC50 (COX-2) [µM] | Compound | selective COX-2 inhibitory activity (COX-2 in preference to COX-1) (COX-2) |
| --- | --- | --- | --- |
| 100 |  | 2-(3-fluorophenyl)-3-(4-aminosulfonylphenyl)imidazo[1,2a][1,2,4]triazine [Product Ihh] |  |
| 10 | 2.8 | 2-(3-methylphenyl)-3-(4-aminosulfonylphenyl)imidazo[1,2a][1,2,4]triazine [Product Igg] |  |
| 50 | 2.2 | 2-(4-fluorophenyl)-3-(4-methylsulfonylphenyl)imidazo[1,2a][1,2,4]triazine [Product Ibb] |  |
| > 50 | 3.8 | 2-phenyl-3-(4-aminosulfonylphenyl)imidazo[1,2a][1,2,4]triazine [Product Idd] |  |
| 76 | 3.1 | 2-phenyl-3-(4-methylsulfonylphenyl)imidazo[1,2a][1,2,4]triazine [Product Iaa] |  |
| > 50 | 5.5 | CS(=O)(=O)c1ccc(-c2c(-c3ccccc3)nc3ncccn23)cc1 [Product Ia, 2-phenyl-3-(4-methylsulfonylphenyl)imidazo [1,2a]pyrimidine] |  |
| > 50 |  | Cc1ccc(-c2nc3ncccn3c2-c2ccc(S(C)(=O)=O)cc2)cc1 [Product Ib, 2-(4-methylphenyl)-3-(4-methylsulfonylphenyl)imidazo[1,2a]pyrimidine] |  |
| > 50 | 2.9 | CS(=O)(=O)c1ccc(-c2c(-c3ccc(F)cc3)nc3ncccn23)cc1 [Product Ic, 2-(4-fluorophenyl)-3-(4-methylsulfonylphenyl)imidazo[1,2a]pyrimidine] | specially selective COX-2 inhibitory activity |
| 40 | 3.3 | COc1ccc(-c2nc3ccccn3c2-c2ccc(S(C)(=O)=O)cc2)cc1 [Product Iccc, 2-(4-methoxyphenyl)-3-(4-methylsulfonylphenyl)imidazo[1,2a]pyridine] |  |
| > 50 | > 10 | CS(=O)(=O)c1ccc(-c2c(-c3ccc(Cl)cc3)nc3ncccn23)cc1 [Product Id, 2-(4-chlorophenyl)-3-(4-methylsulfonylphenyl)imidazo[1,2a]pyrimidine] |  |
| 80 | 3.5 | CCOc1ccc(-c2nc3ccccn3c2-c2ccc(S(C)(=O)=O)cc2)cc1 [Product Iddd, 2-(4-ethoxyphenyl)-3-(4-methylsulfonylphenyl)imidazo[1,2a]pyridine] |  |
| 25 | 1.4 | COc1ccc(-c2nc3ncccn3c2-c2ccc(S(C)(=O)=O)cc2)cc1 [Product If, 2-(4-methoxyphenyl)-3-(4-methylsulfonylphenyl)imidazo[1,2a]pyrimidine] | specially selective COX-2 inhibitory activity |
| 45 | 1 | COc1ccc(-c2nc3ccccn3c2-c2ccc(S(C)(=O)=O)cc2)cc1C [Product Ifff, 2-(3-methyl-4-methoxyphenyl)-3-(4-methylsulfonylphenyl)imidazo[1,2a]pyridine] |  |
|  | 1 | CCOc1ccc(-c2nc3ncccn3c2-c2ccc(S(C)(=O)=O)cc2)cc1 [Product Ig, 2-(4-ethoxyphenyl)-3-(4-methylsulfonylphenyl)imidazo[1,2a]pyrimidine] | specially selective COX-2 inhibitory activity |
| > 50 | 2.8 | Cc1ccc(-c2nc3ncccn3c2-c2ccc(S(C)(=O)=O)cc2)cc1C [Product Ih, 2-(3,4-dimethylphenyl)-3-(4-methylsulfonylphenyl)imidazo[1,2a]pyrimidine] |  |
| 82 | 6.8 | COc1ccc(-c2nc3ccccn3c2-c2ccc(S(C)(=O)=O)cc2)cc1Cl [Product Ihhh, 2-(3-chloro-4-methoxyphenyl)-3-(4-methylsulfonylphenyl)imidazo[1,2a]pyridine] |  |
| 30 | 2.2 | COc1ccc(-c2nc3ncccn3c2-c2ccc(S(C)(=O)=O)cc2)cc1C [Product Ii, 2-(3-methyl-4-methoxyphenyl)-3-(4-methylsulfonylphenyl)imidazo[1,2a]pyrimidine] |  |
| 61 | 3.9 | COc1ccc(-c2nc3ncccn3c2-c2ccc(S(C)(=O)=O)cc2)cc1Cl [Product Ik, 2-(3-chloro-4-methoxyphenyl)-3-(4-methylsulfonylphenyl)imidazo[1,2a]pyrimidine] |  |
| 2 | 4.2 | Cc1ccn2c(-c3ccc(S(C)(=O)=O)cc3)c(-c3ccc(C)c(C)c3)nc2n1 [Product In, 7-methyl-2-(3,4-dimethylphenyl)-3-(4-methylsulfonylphenyl)imidazo[1,2a]pyrimidine] |  |
| > 100 | > 5 | Cc1ccccc1-c1nc2ccccn2c1-c1ccc(S(N)(=O)=O)cc1 [Product Innn, 2-(2-methylphenyl)-3-(4-aminosulfonylphenyl)imidazo[1,2a]pyridine] |  |
| > 50 | 4.5 | Cc1ccc(-c2nc3ncccn3c2-c2ccc(S(N)(=O)=O)cc2)cc1 [Product Io, 2-(4-methylphenyl)-3-(4-aminosulfonylphenyl)imidazo[1,2a]pyrimidine] |  |
|  | 3.1 | Cc1cccc(-c2nc3ccccn3c2-c2ccc(S(N)(=O)=O)cc2)c1 [Product Ippp, 2-(3-methylphenyl)-3-(4-aminosulfonylphenyl)imidazo[1,2a]pyridine] |  |
| > 100 | > 10 | NS(=O)(=O)c1ccc(-c2c(-c3cccc(F)c3)nc3ccccn23)cc1 [Product Iqqq, 2-(3-fluorophenyl)-3-(4-aminosulfonylphenyl)imidazo[1,2a]pyridine] |  |
| 25 | 1.7 | COc1ccc(-c2nc3ccccn3c2-c2ccc(S(N)(=O)=O)cc2)cc1C [Product Iuuu, 2-(3-methyl-4-methoxyphenyl)-3-(4-aminosulfonylphenyl)imidazo[1,2a]pyridine] |  |
